Reference: ChEMBL document CHEMBL2203180, “Novel nitric oxide-releasing isochroman-4-one derivatives: Synthesis and evaluation of antihypertensive activity” (Bioorg Med Chem, 2012)
Calls of active or inactive are those of the source. No cut-off for these calls is given here.

What was measured:
[1] = Induction of nitric oxide release in 0.1 mM phosphate buffer solution at pH 7.4 assessed as nitrate/nitrite level after 60 mins by Griess assay; assay type: physicochemical; conditions: pH 7.4, 1 h
[2] = Induction of nitric oxide release in 0.1 mM phosphate buffer solution at pH 7.4 assessed as nitrate/nitrite level after 100 mins by Griess assay; assay type: physicochemical; conditions: pH 7.4, 100 min
[3] = Induction of nitric oxide release in 0.1 mM phosphate buffer solution at pH 7.4 assessed as nitrate/nitrite level after 150 mins by Griess assay; assay type: physicochemical; conditions: pH 7.4, 2.5 h
[4] = Induction of nitric oxide release in 0.1 mM phosphate buffer solution at pH 7.4 assessed as nitrate/nitrite level after 30 mins by Griess assay; assay type: physicochemical; conditions: pH 7.4, 0.5 h
[5] = Induction of nitric oxide release in 0.1 mM phosphate buffer solution at pH 7.4 assessed as nitrate/nitrite level after 120 mins by Griess assay; assay type: physicochemical; conditions: pH 7.4, 2 h
[6] = Induction of nitric oxide release in 0.1 mM phosphate buffer solution at pH 7.4 assessed as nitrate/nitrite level after 80 mins by Griess assay; assay type: physicochemical; conditions: pH 7.4, 80 min
[7] = Induction of nitric oxide release in 0.1 mM phosphate buffer solution at pH 7.4 assessed as nitrate/nitrite level after 10 mins by Griess assay; assay type: physicochemical; conditions: pH 7.4, 10 min
Rattus norvegicus [8] = test: Toxicity in spontaneously hypertensive rat assessed as change in heart rate at 80 mg/kg, po up to 24 hrs; assay type: organism-based; parameters: dose 80 mg/kg, route oral; conditions: in vivo
Rattus norvegicus [9] = test: Antihypertensive activity in spontaneously hypertensive rat assessed as reduction of blood pressure at 80 mg/kg, po up to 24 hrs; assay type: functional; parameters: scale not given: the % may be the effect or the level left
Rattus norvegicus [10] = test: Antihypertensive activity in spontaneously hypertensive rat assessed as reduction of diastolic arterial pressure at 80 mg/kg, po after 6 to 12 hrs; assay type: functional, Artery; parameters: scale not given: the % may be the effect or the level left
Rattus norvegicus [11] = test: Antihypertensive activity in spontaneously hypertensive rat assessed as reduction of mean artery pressure at 80 mg/kg, po up to 24 hrs; assay type: functional, organism-based; parameters: dose 80 mg/kg
Rattus norvegicus [12] = test: Antihypertensive activity in spontaneously hypertensive rat assessed as reduction of diastolic arterial pressure at 40 mg/kg, po up to 24 hrs; assay type: functional, organism-based; parameters: dose 40 mg/kg; conditions: Artery
Rattus norvegicus [13] = test: Antihypertensive activity in spontaneously hypertensive rat assessed as reduction of diastolic arterial pressure at 40 mg/kg, po after 6 to 12 hrs; assay type: functional, Artery; parameters: scale not given: the % may be the effect or the level left
[14] = Induction of nitric oxide release in 0.1 mM phosphate buffer solution at pH 7.4 assessed as nitrate/nitrite level after 10 to 150 mins by Griess assay; assay type: physicochemical

COc1cc2c(cc1OCC(=O)OCCCCO[N+](=O)[O-])C(=O)C(C)OC2 (centres undefined)
Activity [1]: 7.13 µmol/L
Activity [2]: 8.9 µmol/L
Activity [3]: 10.81 µmol/L
Activity [4]: 6.01 µmol/L
Activity [5]: 9.02 µmol/L
Activity [6]: 8.69 µmol/L
Activity [7]: 5.73 µmol/L

COc1cc2c(cc1OCCCO[N+](=O)[O-])C(=O)C(C)OC2 (centres undefined)
Activity [1]: 6.29 µmol/L
Activity [2]: 6.89 µmol/L
Activity [3]: 7.04 µmol/L
Activity [4]: 5.59 µmol/L
Activity [5]: 7.01 µmol/L
Activity [6]: 6.77 µmol/L
Activity [7]: 5.14 µmol/L

COc1ccc2c(c1OCCO[N+](=O)[O-])COC(C)C2=O (centres undefined)
Activity [1]: 4.53 µmol/L
Activity [2]: 10.5 µmol/L
Activity [3]: 16.26 µmol/L
Activity [4]: 1.78 µmol/L
Activity [5]: 14.61 µmol/L
Activity (Rattus norvegicus [8]): Non-toxic
Activity (Rattus norvegicus [9]): 40%
Activity [6]: 7.29 µmol/L
Activity [7]: 1.51 µmol/L
Activity (Rattus norvegicus [10]): >30%
Activity (Rattus norvegicus [11]): Active
Activity (Rattus norvegicus [12]): Active

COc1ccc2c(c1OCC(=O)OCCCO[N+](=O)[O-])COC(C)C2=O (centres undefined)
Activity [1]: 2.27 µmol/L
Activity [2]: 3.95 µmol/L
Activity [3]: 4.86 µmol/L
Activity [4]: 1.19 µmol/L
Activity [5]: 4.01 µmol/L
Activity [6]: 3.84 µmol/L
Activity [7]: 0.84 µmol/L

COc1cc2c(cc1OCCO[N+](=O)[O-])C(=O)C(C)OC2 (centres undefined)
Activity [1]: 6.04 µmol/L
Activity [2]: 7.56 µmol/L
Activity [3]: 10.06 µmol/L
Activity [4]: 5.84 µmol/L
Activity [5]: 8.1 µmol/L
Activity [6]: 6.52 µmol/L
Activity [7]: 5.56 µmol/L

CC1OCc2c(ccc(O)c2O)C1=O (racemic)
Activity (Rattus norvegicus [12]): Active

COc1ccc2c(c1OCCCCO[N+](=O)[O-])COC(C)C2=O (centres undefined)
Activity [1]: 3.02 µmol/L
Activity [2]: 4.03 µmol/L
Activity [3]: 4.02 µmol/L
Activity [4]: 2.46 µmol/L
Activity [5]: 4.01 µmol/L
Activity [6]: 3.84 µmol/L
Activity [7]: 2.19 µmol/L

C[C@H](CS)C(=O)N1CCC[C@H]1C(=O)O [CAPTOPRIL]
Activity (Rattus norvegicus [13]): >30%
Activity (Rattus norvegicus [12]): Active

COc1cc2c(cc1O)COC(C)C2=O (centres undefined)
Activity [14]: Not Active

COc1ccc2c(c1OCC(=O)OCCO[N+](=O)[O-])COC(C)C2=O (centres undefined)
Activity [1]: 13 µmol/L
Activity [2]: 13.35 µmol/L
Activity [3]: 16.68 µmol/L
Activity [4]: 10.84 µmol/L
Activity [5]: 13.27 µmol/L
Activity [6]: 13.12 µmol/L
Activity [7]: 10.62 µmol/L
Activity (Rattus norvegicus [12]): Active

COc1cc2c(cc1OCCO[N+](=O)[O-])COC(C)C2=O (centres undefined)
Activity [1]: 11.24 µmol/L
Activity [2]: 12.09 µmol/L
Activity [3]: 14.72 µmol/L
Activity [4]: 10.25 µmol/L
Activity [5]: 12.27 µmol/L
Activity [6]: 11.28 µmol/L
Activity [7]: 10.12 µmol/L

COc1cc2c(cc1OCC(=O)OCCO[N+](=O)[O-])C(=O)C(C)OC2 (centres undefined)
Activity [1]: 10.07 µmol/L
Activity [2]: 12.09 µmol/L
Activity [3]: 13.99 µmol/L
Activity [4]: 8.81 µmol/L
Activity [5]: 12.1 µmol/L
Activity [6]: 11.95 µmol/L
Activity [7]: 8.43 µmol/L

COc1cc2c(cc1OCC(=O)OCCO[N+](=O)[O-])COC(C)C2=O (centres undefined)
Activity [1]: 8.64 µmol/L
Activity [2]: 11.34 µmol/L
Activity [3]: 16.26 µmol/L
Activity [4]: 6.94 µmol/L
Activity [5]: 12.94 µmol/L
Activity [6]: 11.11 µmol/L
Activity [7]: 6.66 µmol/L

COc1cc2c(cc1OCC(=O)OCCCO[N+](=O)[O-])COC(C)C2=O (centres undefined)
Activity [1]: 11.91 µmol/L
Activity [2]: 14.61 µmol/L
Activity [3]: 20.62 µmol/L
Activity [4]: 10.41 µmol/L
Activity [5]: 17.61 µmol/L
Activity (Rattus norvegicus [8]): Non-toxic
Activity (Rattus norvegicus [9]): 40%
Activity [6]: 14.7 µmol/L
Activity [7]: 10.37 µmol/L
Activity (Rattus norvegicus [10]): >30%
Activity (Rattus norvegicus [11]): Active
Activity (Rattus norvegicus [12]): Active

COc1ccc2c(c1OCCCO[N+](=O)[O-])COC(C)C2=O (centres undefined)
Activity [1]: 9.23 µmol/L
Activity [2]: 9.4 µmol/L
Activity [3]: 9.47 µmol/L
Activity [4]: 7.45 µmol/L
Activity [5]: 9.43 µmol/L
Activity [6]: 9.27 µmol/L
Activity [7]: 7.42 µmol/L

COc1ccc2c(c1O)COC(C)C2=O (centres undefined)
Activity [14]: Not Active

COc1cc2c(cc1OCC(=O)OCCCCO[N+](=O)[O-])COC(C)C2=O (centres undefined)
Activity [1]: 8.72 µmol/L
Activity [2]: 11.67 µmol/L
Activity [3]: 14.92 µmol/L
Activity [4]: 7.45 µmol/L
Activity [5]: 11.69 µmol/L
Activity [6]: 11.7 µmol/L
Activity [7]: 7.42 µmol/L

COc1cc2c(cc1OCCCO[N+](=O)[O-])COC(C)C2=O (centres undefined)
Activity [1]: 18.12 µmol/L
Activity [2]: 18.81 µmol/L
Activity [3]: 28.58 µmol/L
Activity [4]: 17.87 µmol/L
Activity [5]: 18.95 µmol/L
Activity (Rattus norvegicus [8]): Non-toxic
Activity (Rattus norvegicus [9]): 40%
Activity [6]: 18.3 µmol/L
Activity [7]: 17.45 µmol/L
Activity (Rattus norvegicus [10]): >30%
Activity (Rattus norvegicus [11]): Active
Activity (Rattus norvegicus [12]): Active

COc1ccc2c(c1OCC(=O)OCCCCO[N+](=O)[O-])COC(C)C2=O (centres undefined)
Activity [1]: 6.04 µmol/L
Activity [2]: 6.55 µmol/L
Activity [3]: 8.72 µmol/L
Activity [4]: 5.08 µmol/L
Activity [5]: 6.59 µmol/L
Activity [6]: 6.27 µmol/L
Activity [7]: 4.05 µmol/L

CC1OCc2cc(O)c(O)cc2C1=O (racemic)
Activity (Rattus norvegicus [12]): Active

COc1cc2c(cc1OCCCCO[N+](=O)[O-])COC(C)C2=O (centres undefined)
Activity [1]: 7.72 µmol/L
Activity [2]: 8.31 µmol/L
Activity [3]: 12.99 µmol/L
Activity [4]: 5.17 µmol/L
Activity [5]: 8.68 µmol/L
Activity [6]: 7.85 µmol/L
Activity [7]: 4.81 µmol/L

COc1cc2c(cc1OCCCCO[N+](=O)[O-])C(=O)C(C)OC2 (centres undefined)
Activity [1]: 4.87 µmol/L
Activity [2]: 6.05 µmol/L
Activity [3]: 7.54 µmol/L
Activity [4]: 4.83 µmol/L
Activity [5]: 6.09 µmol/L
Activity [6]: 5.93 µmol/L
Activity [7]: 4.81 µmol/L

COc1cc2c(cc1OCC(=O)OCCCO[N+](=O)[O-])C(=O)C(C)OC2 (centres undefined)
Activity [1]: 6.29 µmol/L
Activity [2]: 8.23 µmol/L
Activity [3]: 8.72 µmol/L
Activity [4]: 5.76 µmol/L
Activity [5]: 8.6 µmol/L
Activity [6]: 7.77 µmol/L
Activity [7]: 5.65 µmol/L

COc1cc2c(cc1O)C(=O)C(C)OC2 (centres undefined)
Activity [14]: Not Active
